Experimental data from patent publication US20050043315A1, “Aminopyrimidine compounds, processes for their preparation and pharmaceutical compositions containing them” (priority 2002, published 2005).

| Structure (SMILES) | melting point [°C] |
| --- | --- |
| CC(C)n1nc(-c2c(-c3ccccc3)nc(N)nc2N2CCCCC2)ccc1=O [Example 126, 6-[2-Amino-4-phenyl-6-(1-piperidinyl)-5-pyrimidinyl]-2-isopropyl-3(2H)-pyridazinone] | 221 to 223 |
| CC(C)n1nc(-c2c(-c3ccccc3)nc(N)nc2N2CCOCC2)ccc1=O [Example 127, 6-[2-Amino-4-(4-morpholinyl)-6-phenyl-5-pyrimidinyl]-2-isopropyl-3(2H)-pyridazinone] | 251 to 253 |
| CC(C)n1nc(-c2c(-c3ccccc3)nc(N)nc2N2CCNCC2)ccc1=O [Example 128, 6-[2-amino-4-phenyl-6-(1-piperazinyl)-5-pyrimidinyl]-2-isopropyl-3(2H)-pyridazinone] | 254 to 256 |
| CC(C)n1nc(-c2c(-c3ccccc3)nc(N)nc2N2CCN(C)CC2)ccc1=O [Example 129, 6-[2-Amino-4-(4-methyl-1-piperazinyl)-6-phenyl-5-pyrimidinyl]-2-isopropyl-3(2H)-pyridazinone] | 213 to 215 |
| CC(C)n1nc(-c2c(-c3ccccc3)nc(N)nc2-n2ccnc2)ccc1=O [Example 130, 6-[2-amino-4-(1H-imidazol-1-yl)-6-phenyl-5-pyrimidinyl]-2-isopropyl-3(2H)-pyridazinone] | 255 to 258 |
| CC(C)n1nc(-c2c(-c3ccccc3)nc(N)nc2-n2cncn2)ccc1=O [Example 131, 6-[2-Amino-4-phenyl-6-(1H-1,2,4-triazol-1-yl)-5-pyrimidinyl]-2-isopropyl-3(2H)-pyridazinone] | 266 to 268 |
| CC(C)n1nc(-c2c(-c3ccccc3)nc(N)nc2-n2cnc3ccccc32)ccc1=O [Example 132, 6-[2-Amino-4-(1H-benzimidazol-1-yl)-6-phenyl-5-pyrimidinyl]-2-isopropyl-3(2H)-pyridazinone] | 242 to 244 |
| CC(C)n1nc(-c2c(Nc3ccccc3)nc(N)nc2-c2ccccc2)ccc1=O [Example 133, 6-(2-amino-4-anilino-6-phenyl-5-pyrimidinyl)-2-isopropyl-3(2H)-pyridazinone] | 240 to 242 |
| Cc1nc(Nc2nc(N)nc(-c3ccccc3)c2-c2ccc(=O)n(C(C)C)n2)sc1C [Example 134, 6-{2-Amino-4-[(4,5-dimethyl-1,3-thiazol-2-yl)amino]-6-phenyl-5-pyrimidinyl}-2-isopropyl-3(2H)-pyridazinone] | 256 to 257.5 |
| CC(C)n1nc(-c2c(Nc3ccccn3)nc(N)nc2-c2ccccc2)ccc1=O [Example 135, 6-[2-Amino-4-phenyl-6-(2-pyridinylamino)-5-pyrimidinyl]-2-isopropyl-3(2H)-pyridazinone] | 163 to 164 |
| CC(C)n1nc(-c2c(NC(=N)N)nc(N)nc2-c2ccccc2)ccc1=O [Example 137, N-[2-amino-5-(1-isopropyl-6-oxo-1,6-dihydro-3-pyridazinyl)-6-phenyl-4-pyrimidinyl]guanidine] | 272 to 274.5 |
| CC(C)n1nc(-c2c(Sc3ccccc3)nc(N)nc2-c2ccccc2)ccc1=O [Example 138, 6-[2-Amino-4-phenyl-6-(phenylthio)-5-pyrimidinyl]-2-isopropyl-3(2H)-pyridazinone] | 214 to 215 |
| CC(C)n1nc(-c2c(-c3ccccc3)nc(N)[nH]c2=O)ccc1=O [Example 140, 6-(2-amino-6-oxo-4-phenyl-1,6-dihydro-5-pyrimidinyl)-2-isopropyl-3(2H)-pyridazinone] | 291 to 295 |
| CC(C)n1nc(-c2c(-c3ccccc3)nc(N)[nH]c2=S)ccc1=O [Example 141, 6-(2-amino-4-phenyl-6-thioxo-1,6-dihydro-5-pyrimidinyl)-2-isopropyl-3(2H)-pyridazinone] | 295 to 299 |
| CSc1nc(N)nc(-c2ccccc2)c1-c1ccc(=O)n(C)n1 [Example 142, 6-[2-Amino-4-(methylthio)-6-phenyl-5-pyrimidinyl]-2-methyl-3(2H)-pyridazinone] | 233 to 235 |
| Cn1nc(-c2c(-c3ccccc3)nc(N)nc2[S+](C)[O-])ccc1=O (centres unmarked) [Example 143, 6-[2-amino-4-(methylsulfinyl)-6-phenyl-5-pyrimidinyl]-2-methyl-3(2H)-pyridazinone] | > 250 |
| COc1nc(N)nc(-c2ccccc2)c1-c1ccc(=O)n(C)n1 [Example 144, 6-(2-Amino-4-methoxy-6-phenyl-5-pyrimidinyl)-2-methyl-3(2H)-pyridazinone] | 218 to 220 |
| Cn1nc(-c2c(NCc3ccccc3)nc(N)nc2-c2ccccc2)ccc1=O [Example 145, 6-[2-Amino-4-(benzylamino)-6-phenyl-5-pyrimidinyl]-2-methyl-3(2H)-pyridazinone] | > 250 |
| Cn1nc(-c2c(NCc3ccccn3)nc(N)nc2-c2ccccc2)ccc1=O [Example 146, 6-{2-amino-4-phenyl-6-[(2-pyridinylmethyl)amino]-5-pyrimidinyl}-2-methyl-3(2H)-pyridazinone] | 248 to 250 |

| Structure (SMILES) | melting point [°C] |
| --- | --- |
| Cn1nc(-c2c(Nc3ccccc3)nc(N)nc2-c2ccccc2)ccc1=O [Example 147, 6-(2-Amino-4-anilino-6-phenyl-5-pyrimidinyl)-2-methyl-3(2H)-pyridazinone] | 252 to 254 |
| CSc1nc(N)nc(-c2ccc(F)cc2)c1-c1ccc(=O)n(C(C)C)n1 [Example 148, 6-[2-amino-4-(4-fluorophenyl)-6-(methylthio)-5-pyrimidinyl]-2-isopropyl-3(2H)-pyridazinone] | 232 to 234 |
| COc1nc(N)nc(-c2ccc(F)cc2)c1-c1ccc(=O)n(C(C)C)n1 [Example 149, 6-[2-amino-4-(4-fluorophenyl)-6-methoxy-5-pyrimidinyl]-2-isopropyl-3(2H)-pyridazinone] | 207 to 209 |
| COc1nc(N)nc(-c2ccc(S(C)(=O)=O)cc2)c1-c1ccc(=O)n(C(C)C)n1 [Example 150, 6-{2-amino-4-methoxy-6-[4-(methylsulfonyl)phenyl]-5-pyrimidinyl}-2-isopropyl-3(2H)-pyridazinone] | 148 to 151 |
| CC(C)n1nc(-c2c(-c3ccc(F)cc3)nc(N)nc2[S+](C)[O-])ccc1=O (centres unmarked) [Example 151, 6-[2-amino-4-(4-fluorophenyl)-6-(methylsulfinyl)-5-pyrimidinyl]-2-isopropyl-3(2H)-pyridazinone] | 238 to 240 |
| CSc1nc(N)nc(-c2ccc(S(C)(=O)=O)cc2)c1-c1ccc(=O)n(C(C)C)n1 [Example 151, 6-[2-amino-4-[4-(methylsulfonyl)phenyl]-6-(methylthio)-5-pyrimidinyl]-2-isopropyl-3(2H)-pyridazinone] | 241 to 243 |
| CSc1nc(N)nc(-c2ccc([S+](C)[O-])cc2)c1-c1ccc(=O)n(C(C)C)n1 (centres unmarked) [Example 152, 6-[2-amino-4-[4-(methylsulfinyl)phenyl]-6-(methylthio)-5-pyrimidinyl]-2-isopropyl-3(2H)-pyridazinone] | 221 to 223 |
| COc1nc(N)nc(-c2ccc([S+](C)[O-])cc2)c1-c1ccc(=O)n(C(C)C)n1 (centres unmarked) [Example 153, 6-{2-Amino-4-methoxy-6-[4-(methylsulfinyl)phenyl]-5-pyrimidinyl}-2-isopropyl-3(2H)-pyridazinone] | 127 to 130 |
| CC(C)n1nc(-c2c(NCc3ccccc3)nc(N)nc2-c2ccc(F)cc2)ccc1=O [Example 156, 6-[2-Amino-4-(benzylamino)-6-(4-fluorophenyl)-5-pyrimidinyl]-2-isopropyl-3(2H)-pyridazinone] | 191 to 192 |
| CC(C)n1nc(-c2c(NCc3ccccn3)nc(N)nc2-c2ccc(F)cc2)ccc1=O [Example 157, 6-{2-Amino-4-(4-fluorophenyl)-6-[(2-pyridinylmethyl)amino]-5-pyrimidinyl}-2-isopropyl-3(2H)-pyridazinone] | 210 to 212 |
| CC(C)n1nc(-c2c(Nc3ccccc3)nc(N)nc2-c2ccc(F)cc2)ccc1=O [Example 158, 6-[2-Amino-4-anilino-6-(4-fluorophenyl)-5-pyrimidinyl]-2-isopropyl-3(2H)-pyridazinone] | > 250 |
| CC(C)n1nc(-c2c(-c3ccccc3)nc(N)n(CC(=O)OC(C)(C)C)c2=O)ccc1=O [Example 159, tert-butyl [2-amino-5-(1-isopropyl-6-oxo-1,6-dihydro-3-pyridazinyl)-6-oxo-4-phenyl-1(6H)-pyrimidinyl]acetate] | 138 to 141 |
| CC(C)n1nc(-c2c(OCC(=O)OC(C)(C)C)nc(N)nc2-c2ccccc2)ccc1=O [Example 159, tert-butyl {[2-amino-5-(1-isopropyl-6-oxo-1,6-dihydro-3-pyridazinyl)-6-phenyl-4-pyrimidinyl]-oxy}acetate] | 160 to 162 |
| CC(C)n1nc(-c2c(OCC(=O)c3ccccc3)nc(N)nc2-c2ccccc2)ccc1=O [Example 161, 6-[2-Amino-4-(2-oxo-2-phenylethoxy)-6-phenyl-5-pyrimidinyl]-2-isopropyl-3(2H)-pyridazinone] | 182 to 183 |
| CC(C)CC(=O)Nc1ncc(-c2ccc(=O)n(C(C)C)n2)c(-c2ccccc2)n1 [Example 162, N-[5-(1-isopropyl-6-oxo-1,6-dihydro-3-pyridazinyl)-4-phenyl-2-pyrimidinyl]-3-methylbutanamide] | 161 |
| CC(C)C(=O)Nc1ncc(-c2ccc(=O)n(C(C)C)n2)c(-c2ccccc2)n1 [Example 163, N-[5-(1-isopropyl-6-oxo-1,6-dihydro-3-pyridazinyl)-4-phenyl-2-pyrimidinyl]-2-methylpropanamide] | 145 to 147 |
| CCCC(=O)Nc1ncc(-c2ccc(=O)n(C(C)C)n2)c(-c2ccccc2)n1 [Example 164, N-[5-(1-isopropyl-6-oxo-1,6-dihydro-3-pyridazinyl)-4-phenyl-2-pyrimidinyl]butanamide] | 148 to 150 |
| CC(C)n1nc(-c2cnc(NC(=O)C3CCCCC3)nc2-c2ccccc2)ccc1=O [Example 165, N-[5-(1-isopropyl-6-oxo-1,6-dihydro-3-pyridazinyl)-4-phenyl-2-pyrimidinyl]cyclohexanecarboxamide] | 195 to 198 |
| COCC(=O)Nc1ncc(-c2ccc(=O)n(C(C)C)n2)c(-c2ccccc2)n1 [Example 166, N-[5-(1-isopropyl-6-oxo-1,6-dihydro-3-pyridazinyl)-4-phenyl-2-pyrimidinyl]-2-methoxyacetamide] | 94 to 97 |
